Data published in paper PMC6801739, “Antitumor Activity of a Novel Tyrosine Kinase Inhibitor AIU2001 Due to Abrogation of the DNA Damage Repair in Non-Small Cell Lung Cancer Cells” (International Journal of Molecular Sciences, 2019).

What was measured:
Assay type in all cases: cell-based, human
H1299 cells [1] = assay: qPCR of DNA damage repair genes and STAT5 mRNA; conditions: 24 h
From the text: (§1) RNA was extracted using TRIzol® RNA isolation reagent (ThermoFisher Scientific). RNA was reverse-transcribed into cDNA using the M-MLV reverse transcriptase (Enzynomics, Daejeon, Korea) and RNase inhibitor (Promega, Madison, WI, USA). The sequence of the primers targeting human BRCA1, BRCA2, RAD51, BARD1, XRCC6, and XRCC5 are as follows: BRCA1 sense 5′-[…]-3′, BRCA1 antisense 5′-[…]-3′, BRCA2 sense 5′-[…]-3′, BRCA2 antisense 5′-[…]-3′, RAD51 sense 5′-[…]-3′, RAD51 antisense 5′-[…]-3′, BARD1 sense 5′-[…]-3′, BARD1 antisense 5′-[…]-3′, XRCC6 sense 5′-[…]-3′, XRCC6 antisense 5′-[…]-3′, XRCC5 sense 5′-[…]-3′,and XRCC5 antisense 5′-[…]-3′. β-actin was used as a housekeeping gene for normalization. The cDNA was quantified using real-time PCR with SYBR Green/fluorescein qPCR master mix (ThermoScientific, Carlsbad, CA, USA) on a Lightcycler 96 system (Roche Diagnostics, Mannheim, Germany) according to the manufacturer’s protocol.

A549 cells [2] = assay: qPCR of DNA damage repair genes and STAT5 mRNA; conditions: 24 h
From the text: as §1

BEAS2B cells = assay: MTT cell viability assay; conditions: BEAS2B normal bronchial epithelial cells, five days
Description: (§2) Cell viability was assessed using the MTT colorimetric assay. Cells (1 × 10^3 cells/well) were seeded into 96-well plates and treated with the various concentrations of each compound or combination of two compounds. After five days of treatment, 10 μL MTT (0.5 mg/mL) was added, and further incubated for 3 h. After removal of the supernatant, the resultant pellet was dissolved in DMSO. The absorbance of the resultant formazan was measured at 540 nm using a plate reader (Multiskan EX; ThermoLabsystems, Waltham, MA, USA).

CCD18-Lu cells = assay: MTT cell viability assay; conditions: CCD18-Lu lung fibroblast cells, five days
Description: as §2

H460 cells = assay: MTT cell viability assay; conditions: five days
Description: as §2

H1299 cells [3] = assay: MTT cell viability assay, single drugs and combinations, CI scores
Description: as §2
(§3) CI scores were calculated using the CompuSyn software by Chou (CompuSyn Inc., Paramus, NJ) based on cell viability after treatment with single- and paired-drug concentrations. The CI equation for two drugs was used: CI=(D)A/(Dx)A+(D)B/(Dx)B where (Dx)A is the concentration of drug A alone that inhibits x%, (Dx)B is the concentration of drug B alone that inhibits x%, (D)A or (D)B is the portion of drug A or drug B in the combination (D)A + (D)B that inhibits x%.

A549 cells [4] = assay: as above
Description: as §2, §3

## CC(C)(C)c1cc(NC(=O)Nc2ccc(-c3cn4c(n3)sc3cc(OCCN5CCOCC5)ccc34)cc2)no1 [quizartinib, reference compound]
H1299 cells [1]
  Expression level of STAT5 mRNA: decreased the expression
  mRNA levels of HR (BRCA1, BRCA2, BARD1, RAD51) and NHEJ (XRCC5, XRCC6) genes: decreased the expression
A549 cells [2]
  Expression level of STAT5 mRNA: decreased the expression
  mRNA levels of HR (BRCA1, BRCA2, BARD1, RAD51) and NHEJ (XRCC5, XRCC6) genes: decreased the expression
BEAS2B cells
  Growth inhibition: slightly inhibited the proliferation
CCD18-Lu cells
  Growth inhibition: slightly inhibited the proliferation
H460 cells
  Growth inhibition: slightly inhibited the proliferation
H1299 cells [3]; Homo sapiens, NCI-H1299, 120 h, Olaparib 0, Quizartinib 0.16 μM, 5 days, panel B, read-out: Relative viability
  viability at 0.16 µM: 104%
H1299 cells [3]; Homo sapiens, NCI-H1299, 120 h, Olaparib 0, Quizartinib 0.32 μM, 5 days, panel B, read-out: Relative viability
  viability at 0.32 µM: 105%
H1299 cells [3]; Homo sapiens, NCI-H1299, 120 h, Olaparib 0, Quizartinib 0.63 μM, 5 days, panel B, read-out: Relative viability
  viability at 0.63 µM: 106%
H1299 cells [3]; Homo sapiens, NCI-H1299, 120 h, Olaparib 0, Quizartinib 1.25 μM, 5 days, panel B, read-out: Relative viability
  viability at 1.25 µM: 92.7%
H1299 cells [3]; Homo sapiens, NCI-H1299, 120 h, Olaparib 0, Quizartinib 2.50 μM, 5 days, panel B, read-out: Relative viability
  viability at 2.5 µM: 87.3%
H1299 cells [3]; Homo sapiens, NCI-H1299, 120 h, Olaparib 0, Quizartinib 5.00 μM, 5 days, panel B, read-out: Relative viability
  viability at 5 µM: 65.8%
H1299 cells [3]; Homo sapiens, NCI-H1299, 120 h, Olaparib 0, Quizartinib 10.00 μM, 5 days, panel B, read-out: Relative viability
  viability at 10 µM: 32.1%
H1299 cells [3]; MTT, five days
  Growth inhibition: slightly inhibited the proliferation
A549 cells [4]; Homo sapiens, 120 h, Olaparib 0, Quizartinib 0.16 μM, 5 days, panel B, read-out: Relative viability
  viability at 0.16 µM: 93.1%
A549 cells [4]; Homo sapiens, 120 h, Olaparib 0, Quizartinib 0.32 μM, 5 days, panel B, read-out: Relative viability
  viability at 0.32 µM: 91.8%
A549 cells [4]; Homo sapiens, 120 h, Olaparib 0, Quizartinib 0.63 μM, 5 days, panel B, read-out: Relative viability
  viability at 0.63 µM: 93.9%
A549 cells [4]; Homo sapiens, 120 h, Olaparib 0, Quizartinib 1.25 μM, 5 days, panel B, read-out: Relative viability
  viability at 1.25 µM: 92.6%
A549 cells [4]; Homo sapiens, 120 h, Olaparib 0, Quizartinib 2.50 μM, 5 days, panel B, read-out: Relative viability
  viability at 2.5 µM: 87.5%
A549 cells [4]; Homo sapiens, 120 h, Olaparib 0, Quizartinib 5.00 μM, 5 days, panel B, read-out: Relative viability
  viability at 5 µM: 77.8%
A549 cells [4]; Homo sapiens, 120 h, Olaparib 0, Quizartinib 10.00 μM, 5 days, panel B, read-out: Relative viability
  viability at 10 µM: 64.6%
A549 cells [4]; MTT, five days
  Growth inhibition: slightly inhibited the proliferation
